Measurements: US20150005306A1 (priority 2013, published 2015)
“Also recorded” adds a separate entry of the source.

Tests used:
[1] = tested on: Alzheimer's disease transgenic mouse; assay: Fear conditioning-cued test; format: in vivo; details: 1 mg/kg of each drug, after the 13 weeks of Example 1
From the text: (§1) To observe the effects of the combination of EPPS and donepezil, the experimental animal subjected to the Y-maze behavior test for 13 weeks in Example 1 was subjected to a fear conditioning test for testing fearful memory of space and sound.
(§2) The fear conditioning test was divided into a fear conditioning-contextual test that tests fearful memory of space and fear conditioning-cued test that tests fearful memory of sound.
(§3) The test included a pair of sound stimulation (CS(conditioned stimulus), 30 seconds, 85 dB, and 30 kHz) and electric shock (US(unconditioned stimulus), 1 second, and 0.5 mA), which was repeated twice. Each was performed with a term of 90 seconds and the mouse was taken out from the conditioning box 90 seconds after the last electric shock (US). The following tests were performed after 24 hours.
Cued test: To change the context after 24 hours of the contextual test, the mouse was put into a box other than the box used for the contextual test and was provided with a sound stimulation identical to the contextual test (electric shock was not provided) to measure freeze reactions. The results were used as a scale for fear response conditioned to the cues.

[2] = tested on: Alzheimer's disease transgenic mouse; assay: Y-maze behavior test (spontaneous alternation); format: in vivo; details: B6C3-Tg(APPswe, PSEN1dE9) mouse, 1 mg/kg of each drug orally every day, Y-maze once every week for 13 weeks
Method: To test the effects of a combination of EPPS and donepezil, a Y-maze behavior test for evaluating learning memory of an Alzheimer's disease transgenic mouse was performed.
10 months old B6C3-Tg(APPswe, PSEN1dE9)85Dbo/Mmjax (The Jackson Laboratory, the U.S.A.) was used as the Alzheimer's disease transgenic mouse, as an experimental animal. The experimental animal was divided into three groups, namely, a donepezil administered group, an EPPS administered group, and a combination of donepezil and EPPS administered group were orally administered with respective drugs everyday in the amounts shown in Table 1 below and the Y-maze test was performed once every week for 13 weeks. As a control group, a transgenic mouse that was not administered with a drug was used as a negative control group and a normal mouse that was not administered with a drug was used as a positive control group.
The Y-maze instrument includes a maze made of a black acrylic board [branches: width 6 cm, length 40 cm, and height 12 cm] having a Y-shape in which all corners were blocked and each branch was disposed at a uniform angle of 120°. […] Frequencies and sequences of the experimental animal moving into each branch were measured to evaluate spontaneous alternation (%). […]

[3] = tested on: β-amyloid fibrils or oligomers; details: as disclosed in a research paper; cited from earlier work
[4] = tested on: Alzheimer's disease transgenic mouse; assay: Fear conditioning-contextual test; format: in vivo; details: 1 mg/kg of each drug, after the 13 weeks of Example 1
From the text: as §1, §2, §3
Contextual test: the experimental animal was maintained in the conditioning box and freeze response were measured without providing sound stimulation and electric shock, results of which were used as a scale of conditioned fearful reaction. The freeze reaction was defined as a motionless state, except for breathing.

Row | Compound | Average freeze response, cued test [1] | improvement in cognitive skills (normalized % alternation rate, FIG. 1) [2] | effect on accumulation of β-amyloid fibrils or oligomers [3] | Average freeze response, contextual test [4]
1 | O=S(=O)(O)CCCN1CCN(CCO)CC1 [EPPS, N-(2-hydroxyethyl)piperazine-N′(3-propanesulfonic acid)] | 55.1042 | gradual improvement in the cognitive skills compared with that of the donepezil administered group; also recorded: reached the same level of cognitive skills as the donepezil administered group at 10 weeks; also recorded: long-term improvement in cognitive skills but a slower improvement compared with donepezil and a lower improvement compared with the combination of EPPS and donepezil | inhibits the accumulation of β-amyloid fibrils or oligomers and decomposes the accumulated β-amyloid fibrils or oligomers | 34.437
2 | COc1cc2c(cc1OC)C(=O)C(CC1CCN(Cc3ccccc3)CC1)C2 (stereo not shown) [donepezil, reference compound] | 58.9167 | initially showed a rapid improvement in cognitive skills, but the improvement reached peak at 5 weeks and decreased at 7 weeks; also recorded: rapid but short-term improvement in cognitive skills |  | 16.602
